# Patent US12077527B2, “Compositions and methods for inhibiting ACSS2” (THE TRUSTEES OF THE UNIVERSITY OF PENNSYLVANIA, priority 2017, dated 2024)
# Columns and labels:
# [1] = tested on: differentiated CAD neurons; assay: Nuclear acetyl-CoA quantification (PicoProbe assay) in differentiated CAD neurons; type: cell-based, mouse; settings: versus control, n=3
# Description: (§1) CAD cells (Cath.-a-differentiated) were grown in Dulbecco's modified Eagle's medium (DMEM):Ham's F12 (1:1), supplemented with 2 mM glutamine, 1% penicillin/streptomycin, and 10% fetal bovine serum (FBS). To induce neuronal differentiation, sub-confluent CAD cell cultures (50-60%) were transferred to serum-free medium (DMEM:Ham's F12 (1:1) supplemented with 2 mM glutamine) and maintained in […] culture dishes for 5 days. […] For knockdown experiments, CAD cells were infected with lentiviral hairpin constructs (TRC collection) designed against ACL (#TRCN0000055217) or ACSS2 (#TRCN0000076124, #TRCN0000076125) in medium containing […] polybrene and 10% FBS for 24 hours. Cells then underwent selection in culture medium supplemented with 0.5 mg/mL puromycin for 5 days to obtain a stably infected population. Cell treatment with ACSS2i (1-(2,3-di(thiophen-2-yl)quinoxalin-6-yl)-3-(2-methoxyethyl)urea (DMSO)) was carried out for 24 hours at a final concentration of 20 μM (treatment with DMSO alone served as control).
# To extract and quantify acetyl-CoA from differentiated CAD neurons, 4×10^6 cells were washed and incubated in lysis buffer for 30 min (10 mM Tris pH 8, 1 mM KCl, 1.5 mM MgCl2, 1 mM DTT). […] The PicoProbe assay was performed in 96-well clear-bottom plates, and the resulting fluorescence was quantified using the Synergy HTX Multi-Mode Microplate Reader (BioTek Instruments).
# [2] = tested on: differentiated CAD neurons; assay: RNA-seq of differentiated CAD neurons treated with ACSS2i; type: cell-based, mouse
# Description: as §1
# To generate libraries for RNA-seq, poly(A)^+ RNA was extracted using the Dynabeads mRNA Direct kit (Ambion) according to the manufacturer's instructions. […] The quantity and quality of the libraries were assessed by BioAnalyzer (Agilent) and qPCR (Kapa Biosystems). The multiplexed libraries were pooled and sequenced on a single lane on the Illumina NextSeq 500 platform (50 bp, single-end reads). […] The aligned reads were mapped to genomic features using cufflinks-2.2.1, (-G parameter to quantify only known features), and iGenomes mml0 UCSC genomic transcript loci. The rRNA, […], and tRNA of the mouse genome were downloaded from the goldenPath UCSC FTP and were masked from the transcript quantification. After quantification, all data processing was done using python pandas library v.0.14.0. […] The statistical significance of the trend and reproducibility were assessed by taking the top 20% of genes by loss of expression in the knockdown and comparing the expression of these genes in inhibitor-treated cells to a random sample of genes outside this set (Mann-Whitney test).
# [3] = tested on: primary hippocampal neurons; assay: Western blots of lysates from primary hippocampal neurons treated with ACSS2i; type: cell-based, mouse; settings: day 7 neurons, ACSS2i 24 hours, western blot
# Description: Cells were lysed in buffer containing 50 mM Tris pH 8.0, 0.5 mM EDTA, 150 mM NaCl, 1% NP40, 1% SDS, supplemented with protease inhibitor cocktail (Life Technologies, number 78446). For subcellular fractionation experiments, the cells were processed using the subcellular fractionation kit for cultured cells (Thermo Scientific, number 78840) according to the manufacturer's instructions. Protein concentration was determined by BCA protein assay (Life Technologies, number 23227), and equal amounts of protein were used in co-immunoprecipitation experiments or directly loaded onto polyacrylamide gels. The endogenous co-immunoprecipitation experiments were performed using antibody-conjugated protein A Dynabeads (Life Technologies) in buffer containing: 20 mM Tris, pH 8.0, 137 mM NaCl, 1 mM MgCl2, 1 mM CaCl2, 1% NP-40, 10% glycerol, with protease and phosphatase inhibitors, and 12.5 U/mL benzonase (Novagen, 70746). Proteins or co-immunoprecipitation eluates were loaded and separated on 4-12% Bis-Tris polyacrylamide gels (NuPAGE). After transfer to nitrocellulose membrane, 3% BSA in TBS supplemented with 0.1% Tween 20 (TBST) was used to block the membrane at room temperature for 1 hour. Primary antibodies were diluted in TBST, and incubated at 4° C. overnight. Primary antibodies are listed below. The membrane was washed three times with TBST, each for 10 min, followed by incubation with HRP-conjugated secondary antibodies at room temperature for 1 hour, in TBST. The membrane was washed again three times, and imaged with a Fujifilm LAS-4000 imager. Original gel blots are provided as FIGS. 14-16. […]
# [4] = tested on: primary hippocampal neurons; assay: RNA-seq of acetate-treated primary hippocampal neurons with or without ACSS2i; type: cell-based, mouse
# Description: All RNA-seq data were prepared for analysis as follows: NextSeq sequencing data was demultiplexed using native apps on BaseSpace. Demultiplexed FASTQs were aligned by RNA-STAR 2.5.2 to assembly mml0 (GRCm38). Aligned reads were mapped to genomic features using HTSeq 0.6.1. Quantification, library size adjustment, and differential gene expression analysis was done using DESeq2 and Wald's test (pairwise contrasts between acetate and DMSO-treatment in the inhibitor-treated or untreated cells, followed by a set overlap of differentially expressed genes). Gene list overlaps were tested for significance using the hypergeometric test.
# Next, the functional relevance of alcohol-derived acetate for ACSS2-dependent histone acetylation in regulating hippocampal gene expression was examined (FIG. 23E, right). […] However, in line with the ChIP-seq data, this response was markedly blunted in ACSS2 KD mice. […] Because alcohol and acetate have pleiotropic effects on brain circuitry and metabolism, an in vitro assay was then developed to more closely model the direct effects of exogenous acetate on gene expression. […]
# ACSS2 = target: T1, ACSS2 (Mus musculus, UniProt Q9QXG4); assay: Incorporation of alcohol-derived heavy acetyl groups into brain histone acetylation (Example 6); type: in vivo; settings: mice treated with ACSS2 inhibitor
# T1 construct: from tissue; host or cells: brain (hippocampus) of living mice
# T1 sequence (Q9QXG4 whole entry): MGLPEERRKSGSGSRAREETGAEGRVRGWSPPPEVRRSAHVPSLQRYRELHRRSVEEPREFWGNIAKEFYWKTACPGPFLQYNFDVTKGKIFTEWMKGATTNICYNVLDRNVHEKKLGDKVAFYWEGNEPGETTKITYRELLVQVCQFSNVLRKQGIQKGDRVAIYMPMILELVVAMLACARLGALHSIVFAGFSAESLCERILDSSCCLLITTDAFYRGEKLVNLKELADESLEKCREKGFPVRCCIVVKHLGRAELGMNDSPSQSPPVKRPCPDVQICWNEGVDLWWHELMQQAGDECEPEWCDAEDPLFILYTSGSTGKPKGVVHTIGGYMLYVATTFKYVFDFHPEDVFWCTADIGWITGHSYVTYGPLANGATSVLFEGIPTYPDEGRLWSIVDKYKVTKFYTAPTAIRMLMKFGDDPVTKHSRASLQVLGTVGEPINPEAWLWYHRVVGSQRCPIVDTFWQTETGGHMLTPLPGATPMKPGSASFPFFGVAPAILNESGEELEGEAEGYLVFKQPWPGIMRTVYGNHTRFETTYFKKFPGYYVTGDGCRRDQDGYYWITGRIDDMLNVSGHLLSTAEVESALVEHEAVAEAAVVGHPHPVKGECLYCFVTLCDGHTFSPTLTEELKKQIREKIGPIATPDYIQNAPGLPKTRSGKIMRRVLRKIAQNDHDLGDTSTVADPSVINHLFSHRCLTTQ
# Description: To investigate the direct role of ACSS2 in alcohol-dependent acetylation in the brain, mice are treated with an ACSS2 inhibitor, ADG-204, ADG-205, ADG-206, or ADG-207. […] In contrast, in control mice, vHPC incorporation of the heavy label is not affected. Thus, acetate derived from hepatic alcohol metabolism is transported to the brain and readily incorporated into histone acetylation.
smiles,measurement,setting,value
"COCCNC(=O)Nc1ccc2nc(-c3cccs3)c(-c3cccs3)nc2c1 [ACSS2i, 1-(2,3-di(thiophen-2-yl)quinoxalin-6-yl)-3-(2-methoxyethyl)urea]","Nuclear acetyl-CoA levels, mean Δ",[1],−0.25±0.05
same,expression of differentiation-induced genes (RNA-seq),[2]; 24-hour ACSS2i 20 μM vs DMSO,a reduction in differentiation-induced genes
same,"expression of ND genes (genes linked to neuronal differentiation, 1,315 genes)",[2]; ACSS2i-treated vs DMSO-treated CAD neurons,markedly reduced
same,genes that showed reduced expression upon ACSS2i treatment,"[2]; RNA-seq, 24-hour ACSS2i 20 μM vs DMSO",299 genes
same,ACSS2 levels,[3],without lowering ACSS2 levels
same,histone acetylation,[3],reduced
same,neuronal marker expression,[3],reduced
same,regulation of acetate-induced genes by ACSS2i,[4]; in the absence of acetate,not regulated
same,acetate-induced genes that failed to become upregulated in the presence of ACSS2i,"[4]; of 3613 acetate-induced genes, 10 mM acetate 24 hours",2107 genes
"CCCCCNC(=O)Nc1ccc2nc(-c3cccs3)c(-c3cccs3)nc2c1 [ADG-204, 1-(2,3-di(thiophen-2-yl)quinoxalin-6-yl)-3-penlylurea]",incorporation of alcohol-derived heavy acetyl groups into histone acetylation,ACSS2,prevents the incorporation of alcohol-derived heavy acetyl groups into histone acetylation
"COCCNC(=O)Nc1ccc2nc(-c3cccs3)c(-c3cccs3)nc2c1 [ADG-205, 1-(2,3-di(thiophen-2-yl)quinoxalin-6-yl)-3-(2-methoxyethyl)urea]",incorporation of alcohol-derived heavy acetyl groups into histone acetylation,ACSS2,prevents the incorporation of alcohol-derived heavy acetyl groups into histone acetylation
"CNC(=O)Nc1ccc2nc(-c3cccs3)c(-c3cccs3)nc2c1 [ADG-206, 1-(2,3-di(thiophen-2-yl)quinoxalin-6-yl)-3-methylurea]",incorporation of alcohol-derived heavy acetyl groups into histone acetylation,ACSS2,prevents the incorporation of alcohol-derived heavy acetyl groups into histone acetylation
"O=C(Nc1ccc2nc(-c3cccs3)c(-c3cccs3)nc2c1)NC12CC3CC(CC(C3)C1)C2 [ADG-207, 1-((1S,3s)-adamantan-1-yl)-3-(2,3-di(thiophen-2-yl)quinoxalin-6-yl)urea]",incorporation of alcohol-derived heavy acetyl groups into histone acetylation,ACSS2,prevents the incorporation of alcohol-derived heavy acetyl groups into histone acetylation
